Measured values taken from ChEMBL document CHEMBL3734723, “Synthesis and anticancer activity of 6-heteroarylcoumarins” (2015).

What was measured:
Assay type in all cases: functional
CCRF-CEM = assay: Growth inhibition of human CCRF-CEM cells incubated for 48 hrs by sulforhodamine B assay; details: for CC50: read-out: LC50 (the source's name)
[1] = Growth inhibition of human RPMI8226 cells incubated for 48 hrs by sulforhodamine B assay; details: RPMI-8226, 48 h; for CC50: read-out: LC50 (the source's name)
[2] = Growth inhibition of human HOP92 cells incubated for 48 hrs by sulforhodamine B assay; details: HOP-92, 48 h; for CC50: read-out: LC50 (the source's name)
NCI-H226 = assay: Growth inhibition of human NCI-H226 cells incubated for 48 hrs by sulforhodamine B assay; details: NCI-H226, 48 h; for CC50: read-out: LC50 (the source's name)
[3] = Growth inhibition of human HCC2998 cells incubated for 48 hrs by sulforhodamine B assay; details: HCC 2998, 48 h; for CC50: read-out: LC50 (the source's name)
[4] = Growth inhibition of human HCT116 cells incubated for 48 hrs by sulforhodamine B assay; details: HCT-116, 48 h; for CC50: read-out: LC50 (the source's name)
U-251 = assay: Growth inhibition of human U251 cells incubated for 48 hrs by sulforhodamine B assay; details: U-251, 48 h; for CC50: read-out: LC50 (the source's name)
Malme-3M = assay: Growth inhibition of human MALME-3M cells incubated for 48 hrs by sulforhodamine B assay; details: for CC50: read-out: LC50 (the source's name)
M14 [5] = assay: Growth inhibition of human M14 cells incubated for 48 hrs by sulforhodamine B assay; details: M14, 48 h; for CC50: read-out: LC50 (the source's name)
[6] = Growth inhibition of human IGROV1 cells incubated for 48 hrs by sulforhodamine B assay; details: IGROV-1, 48 h; for CC50: read-out: LC50 (the source's name)
[7] = Growth inhibition of human OVCAR8 cells incubated for 48 hrs by sulforhodamine B assay; details: OVCAR-8, 48 h; for CC50: read-out: LC50 (the source's name)
[8] = Growth inhibition of human NCI-ADR-RES cells incubated for 48 hrs by sulforhodamine B assay; details: for CC50: read-out: LC50 (the source's name)
786-0 = assay: Growth inhibition of human 786-0 cells incubated for 48 hrs by sulforhodamine B assay; details: 786-0, 48 h; for CC50: read-out: LC50 (the source's name)
A498 = assay: Growth inhibition of human A498 cells incubated for 48 hrs by sulforhodamine B assay; details: A498, 48 h; for CC50: read-out: LC50 (the source's name)
[9] = Growth inhibition of human UO31 cells incubated for 48 hrs by sulforhodamine B assay; details: UO-31, 48 h; for CC50: read-out: LC50 (the source's name)
MCF7 [10] = assay: Growth inhibition of human MCF7 cells incubated for 48 hrs by sulforhodamine B assay; details: MCF7, 48 h; for CC50: read-out: LC50 (the source's name)
MDA-MB-468 [11] = assay: Growth inhibition of human MDA-MB-468 cells incubated for 48 hrs by sulforhodamine B assay; details: MDA-MB-468, 48 h; for CC50: read-out: LC50 (the source's name)
[12] = Growth inhibition of human CNS cancer cells after 48 hrs by sulforhodamine B assay; details: Cancer cell lines; for CC50: read-out: LC50 (the source's name)
[13] = Growth inhibition of human melanoma cells after 48 hrs by sulforhodamine B assay; details: Melanoma cell; for CC50: read-out: LC50 (the source's name)
[14] = Growth inhibition of human ovarian cancer cells after 48 hrs by sulforhodamine B assay; details: Cancer cell lines; for CC50: read-out: LC50 (the source's name)
[15] = Growth inhibition of human renal cancer cells after 48 hrs by sulforhodamine B assay; details: Cancer cell lines; for CC50: read-out: LC50 (the source's name)
[16] = Growth inhibition of human prostate cancer cells after 48 hrs by sulforhodamine B assay; details: Cancer cell lines; for CC50: read-out: LC50 (the source's name)
NCI-H522 = assay: Cytotoxicity against human NCI-H522 cells assessed as cell growth at 10 uM incubated for 48 hrs by sulforhodamine B assay; details: NCI-H522, 48 h, read-out: Activity
MDA-MB-468 [17] = assay: Cytotoxicity against human MDA-MB-468 cells assessed as cell growth at 10 uM incubated for 48 hrs by sulforhodamine B assay; details: MDA-MB-468, 48 h, read-out: Activity
[18] = Cytotoxicity against human HL-60(TB) cells assessed as cell growth at 10 uM incubated for 48 hrs by sulforhodamine B assay; details: HL-60, 48 h, read-out: Activity
EKVX = assay: Cytotoxicity against human EKVX cells assessed as cell growth at 10 uM incubated for 48 hrs by sulforhodamine B assay; details: read-out: Activity
[19] = Cytotoxicity against human HCT116 cells assessed as cell growth at 10 uM incubated for 48 hrs by sulforhodamine B assay; details: HCT-116, 48 h, read-out: Activity
KM12 = assay: Cytotoxicity against human KM12 cells assessed as cell growth at 10 uM incubated for 48 hrs by sulforhodamine B assay; details: KM12, 48 h, read-out: Activity
[20] = Cytotoxicity against human SNB75 cells assessed as cell growth at 10 uM incubated for 48 hrs by sulforhodamine B assay; details: SNB-75, 48 h, read-out: Activity
[21] = Cytotoxicity against human SF268 cells assessed as cell growth at 10 uM incubated for 48 hrs by sulforhodamine B assay; details: SF-268, 48 h, read-out: Activity
[22] = Cytotoxicity against human SNB19 cells assessed as cell growth at 10 uM incubated for 48 hrs by sulforhodamine B assay; details: SNB-19, 48 h, read-out: Activity
[23] = Cytotoxicity against human LOXIMVI cells assessed as cell growth at 10 uM incubated for 48 hrs by sulforhodamine B assay; details: LOX IMVI, read-out: Activity
M14 [24] = assay: Cytotoxicity against human M14 cells assessed as cell growth at 10 uM incubated for 48 hrs by sulforhodamine B assay; details: M14, 48 h, read-out: Activity
MCF7 [25] = assay: Cytotoxicity against human MCF7 cells assessed as cell growth at 10 uM incubated for 48 hrs by sulforhodamine B assay; details: MCF7, 48 h, read-out: Activity
[26] = Cytotoxicity against human TK10 cells assessed as cell growth at 10 uM incubated for 48 hrs by sulforhodamine B assay; details: TK-10, 48 h, read-out: Activity
[27] = Cytotoxicity against human Hs578T cells assessed as cell growth at 10 uM incubated for 48 hrs by sulforhodamine B assay; details: Hs-578T, read-out: Activity

Cc1cc(=O)oc2c(C)c(O)c(-c3ccnc(N)n3)cc12
GI50 (CCRF-CEM): 8.7 µM
TGI (CCRF-CEM): > 100 µM
CC50 (CCRF-CEM): > 100 µM
GI50 [1]: 55.1 µM
TGI [1]: > 100 µM
CC50 [1]: > 100 µM
GI50 [2]: 19.4 µM
TGI [2]: 93.9 µM
CC50 [2]: > 100 µM
GI50 (NCI-H226): 9.84 µM
TGI (NCI-H226): > 100 µM
CC50 (NCI-H226): > 100 µM
GI50 [3]: > 100 µM
TGI [3]: > 100 µM
CC50 [3]: > 100 µM
GI50 [4]: 3.05 µM
TGI [4]: > 100 µM
CC50 [4]: > 100 µM
GI50 (U-251): 8.59 µM
TGI (U-251): > 100 µM
CC50 (U-251): > 100 µM
GI50 (Malme-3M): > 100 µM
TGI (Malme-3M): > 100 µM
CC50 (Malme-3M): > 100 µM
GI50 (M14 [5]): > 100 µM
TGI (M14 [5]): > 100 µM
CC50 (M14 [5]): > 100 µM
GI50 [6]: 15.8 µM
TGI [6]: > 100 µM
CC50 [6]: > 100 µM
GI50 [7]: 6.95 µM
TGI [7]: > 100 µM
CC50 [7]: > 100 µM
GI50 [8]: 66.1 µM
TGI [8]: > 100 µM
CC50 [8]: > 100 µM
GI50 (786-0): 29.8 µM
TGI (786-0): > 100 µM
CC50 (786-0): > 100 µM
GI50 (A498): 1.44 µM
TGI (A498): > 100 µM
CC50 (A498): > 100 µM
GI50 [9]: 2.59 µM
TGI [9]: > 100 µM
CC50 [9]: > 100 µM
GI50 (MCF7 [10]): 2.61 µM
TGI (MCF7 [10]): > 100 µM
CC50 (MCF7 [10]): > 100 µM
GI50 (MDA-MB-468 [11]): 4.53 µM
TGI (MDA-MB-468 [11]): > 100 µM
CC50 (MDA-MB-468 [11]): > 100 µM
GI50 [12]: 13.1 µM
TGI [12]: > 100 µM
CC50 [12]: > 100 µM
GI50 [13]: 68.1 µM
TGI [13]: > 100 µM
CC50 [13]: > 100 µM
GI50 [14]: 42.5 µM
TGI [14]: > 100 µM
CC50 [14]: > 100 µM
GI50 [15]: 10.6 µM
TGI [15]: > 100 µM
CC50 [15]: > 100 µM
GI50 [16]: > 100 µM
TGI [16]: > 100 µM
CC50 [16]: > 100 µM
growth at 10 µM (NCI-H522): 47%
growth at 10 µM (MDA-MB-468 [17]): 40.4%
growth at 10 µM [18]: -0.65%
growth at 10 µM (EKVX): 46.7%
growth at 10 µM [19]: 15.8%
growth at 10 µM (KM12): 66.1%
growth at 10 µM [20]: 33.8%
growth at 10 µM [21]: 62.6%
growth at 10 µM [22]: 64.1%
growth at 10 µM [23]: 27.2%
growth at 10 µM (M14 [24]): 68.6%
growth at 10 µM (MCF7 [25]): 22.1%
growth at 10 µM [26]: 61.9%
growth at 10 µM [27]: 51%

Cc1cc(=O)oc2c(C)c(O)c(-c3cc4ccc(F)cc4[nH]3)cc12
GI50 (CCRF-CEM): 4.42 µM
TGI (CCRF-CEM): 47.7 µM
CC50 (CCRF-CEM): > 100 µM
GI50 [1]: 1.9 µM
TGI [1]: 6.19 µM
CC50 [1]: > 100 µM
GI50 [2]: 0.95 µM
TGI [2]: 4.17 µM
CC50 [2]: 29.9 µM
GI50 (NCI-H226): 3.34 µM
TGI (NCI-H226): 22.1 µM
CC50 (NCI-H226): > 100 µM
GI50 [3]: 3.49 µM
TGI [3]: 13.5 µM
CC50 [3]: 39.9 µM
GI50 [4]: 2.62 µM
TGI [4]: 9.87 µM
CC50 [4]: 31.5 µM
GI50 (U-251): 3.05 µM
TGI (U-251): 13.2 µM
CC50 (U-251): 43.4 µM
GI50 (Malme-3M): 1.95 µM
TGI (Malme-3M): 7.32 µM
CC50 (Malme-3M): 50.2 µM
GI50 (M14 [5]): 3.29 µM
TGI (M14 [5]): 12.7 µM
CC50 (M14 [5]): 36.7 µM
GI50 [6]: 2.3 µM
TGI [6]: 13.7 µM
CC50 [6]: 62.8 µM
GI50 [7]: 3.88 µM
TGI [7]: 24 µM
CC50 [7]: > 100 µM
GI50 [8]: 2.82 µM
TGI [8]: 12.7 µM
CC50 [8]: > 100 µM
GI50 (786-0): 4.1 µM
TGI (786-0): 14 µM
CC50 (786-0): 42.6 µM
GI50 (A498): 1.93 µM
TGI (A498): 6.21 µM
CC50 (A498): 25.8 µM
GI50 [9]: 1.71 µM
TGI [9]: 6.21 µM
CC50 [9]: 25.5 µM
GI50 (MCF7 [10]): 2.57 µM
TGI (MCF7 [10]): 16.2 µM
CC50 (MCF7 [10]): > 100 µM
GI50 (MDA-MB-468 [11]): 2.31 µM
TGI (MDA-MB-468 [11]): 8.66 µM
CC50 (MDA-MB-468 [11]): 80.4 µM
GI50 [12]: 3.89 µM
TGI [12]: 17.5 µM
CC50 [12]: 72.9 µM
GI50 [13]: 2.64 µM
TGI [13]: 9.71 µM
CC50 [13]: 30.8 µM
GI50 [14]: 3.08 µM
TGI [14]: 17.2 µM
CC50 [14]: 73.6 µM
GI50 [15]: 2.94 µM
TGI [15]: 10.8 µM
CC50 [15]: 43.1 µM
GI50 [16]: 3.09 µM
TGI [16]: 14.2 µM
CC50 [16]: > 100 µM
growth at 10 µM (NCI-H522): 15%
growth at 10 µM (MDA-MB-468 [17]): 16.7%
growth at 10 µM [18]: 27.9%
growth at 10 µM (EKVX): 53.3%
growth at 10 µM [19]: 22.9%
growth at 10 µM (KM12): 33.2%
growth at 10 µM [20]: 68.8%
growth at 10 µM [21]: 48.7%
growth at 10 µM [22]: 31.6%
growth at 10 µM [23]: 36.4%
growth at 10 µM (M14 [24]): 52.3%
growth at 10 µM (MCF7 [25]): 28.3%
growth at 10 µM [26]: 59.9%
growth at 10 µM [27]: 42.1%
